# System: HEK293 cells
# Experiment: Preliminary screening as mRNA vectors, EGFP mRNA transfection of HEK293 cells
# Assay type: cell-based
# Details: EGFP mRNA 50 ng per well, 96-well plates; percentage of GFP fluorescent cells relative to total number of cells (Hoechst)
# Summary of the method: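 Screening format: EGFP mRNA transfection (50 ng/well) into HEK293 in 10% FBS-supplemented DMEM. Percent green fluorescent cells, normalised to Hoechst nuclear count, gave the value; Lipofectamine2000 was the reference transfectant.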
row,SMILES,Absolute mRNA transfection efficiency in HEK293 cells
1,CCCCCCCCCCCCCCCCCCSc1nc(NCCCCCCCCCCCC)nc(NCCN2CCN(C)CC2)n1 [Compound D5S18N12],1.7%
2,CCCCCCCCCCCCCCCCCCSc1nc(NCCCCCCCCCCCCC)nc(NCCN2CCN(C)CC2)n1 [Compound D5S18N13],1.4%
3,CCCCCCCCCCCCCCCCCCSc1nc(NCCCCCCCCCCCCCCC)nc(NCCN2CCN(C)CC2)n1 [Compound D5S18N15],0.1%
4,CCCCCCCCCCCCCCCCCCSc1nc(NCCCCCCCCCCCCCCCC)nc(NCCN2CCN(C)CC2)n1 [Compound D5S18N16],0.1%
5,CCCCCCCCCCCCCCCCCCNc1nc(NCCN2CCN(C)CC2)nc(SCCCCCCCCCCCCCCCCCC)n1 [Compound D5S18N18],0.0%
6,CCCCCCNc1nc(NCCCN(C)C)nc(SCCCCCC)n1 [Compound D6S6N6],0.0%
7,CCCCCCCNc1nc(NCCCN(C)C)nc(SCCCCCC)n1 [Compound D6S6N7],0.2%
8,CCCCCCCCNc1nc(NCCCN(C)C)nc(SCCCCCC)n1 [Compound D6S6N8],0.4%
9,CCCCCCCCCNc1nc(NCCCN(C)C)nc(SCCCCCC)n1 [Compound D6S6N9],0.3%
10,CCCCCCCCCCCNc1nc(NCCCN(C)C)nc(SCCCCCC)n1 [Compound D6S6N11],2.5%
11,CCCCCCCCCCCCNc1nc(NCCCN(C)C)nc(SCCCCCC)n1 [Compound D6S6N12],3.5%
12,CCCCCCCCCCCCCNc1nc(NCCCN(C)C)nc(SCCCCCC)n1 [Compound D6S6N13],3.0%
13,CCCCCCCCCCCCCCCNc1nc(NCCCN(C)C)nc(SCCCCCC)n1 [Compound D6S6N15],12.1%
14,CCCCCCCCCCCCCCCCNc1nc(NCCCN(C)C)nc(SCCCCCC)n1 [Compound D6S6N16],40.4%
15,CCCCCCCCCCCCCCCCCCNc1nc(NCCCN(C)C)nc(SCCCCCC)n1 [Compound D6S6N18],60.1%
16,CCCCCCSc1nc(NCCCN(C)C)nc(SCCCCCC)n1 [Compound D6S6S6],12.6%
17,CCCCCCCSc1nc(NCCCN(C)C)nc(SCCCCCC)n1 [Compound D6S6S7],11.3%
18,CCCCCCCCSc1nc(NCCCN(C)C)nc(SCCCCCC)n1 [Compound D6S6S8],21.1%
19,CCCCCCCCCSc1nc(NCCCN(C)C)nc(SCCCCCC)n1 [Compound D6S6S9],10.6%
20,CCCCCCCCCCSc1nc(NCCCN(C)C)nc(SCCCCCC)n1 [Compound D6S6S10],31.4%
21,CCCCCCCCCCCSc1nc(NCCCN(C)C)nc(SCCCCCC)n1 [Compound D6S6S11],15.7%
22,CCCCCCCCCCCCSc1nc(NCCCN(C)C)nc(SCCCCCC)n1 [Compound D6S6S12],24.7%
23,CCCCCCCCCCCCCCSc1nc(NCCCN(C)C)nc(SCCCCCC)n1 [Compound D6S6S14],62.8%
24,CCCCCCCCCCCCCCCSc1nc(NCCCN(C)C)nc(SCCCCCC)n1 [Compound D6S6S15],47.0%

row,SMILES,Absolute mRNA transfection efficiency in HEK293 cells
1,CCCCCCCCCCCCCCCCSc1nc(NCCCN(C)C)nc(SCCCCCC)n1 [Compound D6S6S16],34.4%
2,CCCCCCCCCCCCCCCCCCSc1nc(NCCCN(C)C)nc(SCCCCCC)n1 [Compound D6S6S18],83.3%
3,CCCCCCCSc1nc(NCCCCCC)nc(NCCCN(C)C)n1 [Compound D6S7N6],8.8%
4,CCCCCCCNc1nc(NCCCN(C)C)nc(SCCCCCCC)n1 [Compound D6S7N7],1.8%
5,CCCCCCCCNc1nc(NCCCN(C)C)nc(SCCCCCCC)n1 [Compound D6S7N8],2.8%
6,CCCCCCCCCNc1nc(NCCCN(C)C)nc(SCCCCCCC)n1 [Compound D6S7N9],5.9%
7,CCCCCCCCCCCNc1nc(NCCCN(C)C)nc(SCCCCCCC)n1 [Compound D6S7N11],18.9%
8,CCCCCCCCCCCCNc1nc(NCCCN(C)C)nc(SCCCCCCC)n1 [Compound D6S7N12],12.5%
9,CCCCCCCCCCCCCNc1nc(NCCCN(C)C)nc(SCCCCCCC)n1 [Compound D6S7N13],44.9%
10,CCCCCCCCCCCCCCCNc1nc(NCCCN(C)C)nc(SCCCCCCC)n1 [Compound D6S7N15],37.9%
11,CCCCCCCCCCCCCCCCNc1nc(NCCCN(C)C)nc(SCCCCCCC)n1 [Compound D6S7N16],44.8%
12,CCCCCCCCCCCCCCCCCCNc1nc(NCCCN(C)C)nc(SCCCCCCC)n1 [Compound D6S7N18],49.2%
13,CCCCCCCSc1nc(NCCCN(C)C)nc(SCCCCCCC)n1 [Compound D6S7S7],29.3%
14,CCCCCCCCSc1nc(NCCCN(C)C)nc(SCCCCCCC)n1 [Compound D6S7S8],6.3%
15,CCCCCCCCCSc1nc(NCCCN(C)C)nc(SCCCCCCC)n1 [Compound D6S7S9],14.3%
16,CCCCCCCCCCSc1nc(NCCCN(C)C)nc(SCCCCCCC)n1 [Compound D6S7S10],18.1%
17,CCCCCCCCCCCSc1nc(NCCCN(C)C)nc(SCCCCCCC)n1 [Compound D6S7S11],68.6%
18,CCCCCCCCCCCCSc1nc(NCCCN(C)C)nc(SCCCCCCC)n1 [Compound D6S7S12],93.8%
19,CCCCCCCCCCCCCCSc1nc(NCCCN(C)C)nc(SCCCCCCC)n1 [Compound D6S7S14],59.7%
20,CCCCCCCCCCCCCCCSc1nc(NCCCN(C)C)nc(SCCCCCCC)n1 [Compound D6S7S15],90.0%
21,CCCCCCCCCCCCCCCCSc1nc(NCCCN(C)C)nc(SCCCCCCC)n1 [Compound D6S7S16],90.8%
22,CCCCCCCCCCCCCCCCCCSc1nc(NCCCN(C)C)nc(SCCCCCCC)n1 [Compound D6S7S18],22.0%
23,CCCCCCCCSc1nc(NCCCCCC)nc(NCCCN(C)C)n1 [Compound D6S8N6],9.4%
24,CCCCCCCCSc1nc(NCCCCCCC)nc(NCCCN(C)C)n1 [Compound D6S8N7],4.3%

row,SMILES,Absolute mRNA transfection efficiency in HEK293 cells
1,CCCCCCCCNc1nc(NCCCN(C)C)nc(SCCCCCCCC)n1 [Compound D6S8N8],3.5%
2,CCCCCCCCCNc1nc(NCCCN(C)C)nc(SCCCCCCCC)n1 [Compound D6S8N9],6.7%
3,CCCCCCCCCCCNc1nc(NCCCN(C)C)nc(SCCCCCCCC)n1 [Compound D6S8N11],32.3%
4,CCCCCCCCCCCCNc1nc(NCCCN(C)C)nc(SCCCCCCCC)n1 [Compound D6S8N12],46.0%
5,CCCCCCCCCCCCCNc1nc(NCCCN(C)C)nc(SCCCCCCCC)n1 [Compound D6S8N13],58.0%
6,CCCCCCCCCCCCCCCNc1nc(NCCCN(C)C)nc(SCCCCCCCC)n1 [Compound D6S8N15],55.3%
7,CCCCCCCCCCCCCCCCNc1nc(NCCCN(C)C)nc(SCCCCCCCC)n1 [Compound D6S8N16],67.0%
8,CCCCCCCCCCCCCCCCCCNc1nc(NCCCN(C)C)nc(SCCCCCCCC)n1 [Compound D6S8N18],40.4%
9,CCCCCCCCSc1nc(NCCCN(C)C)nc(SCCCCCCCC)n1 [Compound D6S8S8],45.6%
10,CCCCCCCCCSc1nc(NCCCN(C)C)nc(SCCCCCCCC)n1 [Compound D6S8S9],59.9%
11,CCCCCCCCCCSc1nc(NCCCN(C)C)nc(SCCCCCCCC)n1 [Compound D6S8S10],70.2%
12,CCCCCCCCCCCSc1nc(NCCCN(C)C)nc(SCCCCCCCC)n1 [Compound D6S8S11],92.3%
13,CCCCCCCCCCCCSc1nc(NCCCN(C)C)nc(SCCCCCCCC)n1 [Compound D6S8S12],61.9%
14,CCCCCCCCCSc1nc(NCCCCCC)nc(NCCCN(C)C)n1 [Compound D6S9N6],1.4%
15,CCCCCCCCCSc1nc(NCCCCCCC)nc(NCCCN(C)C)n1 [Compound D6S9N7],1.2%
16,CCCCCCCCCSc1nc(NCCCCCCCC)nc(NCCCN(C)C)n1 [Compound D6S9N8],7.5%
17,CCCCCCCCCNc1nc(NCCCN(C)C)nc(SCCCCCCCCC)n1 [Compound D6S9N9],19.8%
18,CCCCCCCCCCCNc1nc(NCCCN(C)C)nc(SCCCCCCCCC)n1 [Compound D6S9N11],58.8%
19,CCCCCCCCCCCCNc1nc(NCCCN(C)C)nc(SCCCCCCCCC)n1 [Compound D6S9N12],39.3%
20,CCCCCCCCCCCCCNc1nc(NCCCN(C)C)nc(SCCCCCCCCC)n1 [Compound D6S9N13],70.9%
21,CCCCCCCCCCCCCCCNc1nc(NCCCN(C)C)nc(SCCCCCCCCC)n1 [Compound D6S9N15],36.5%
22,CCCCCCCCCCCCCCCCNc1nc(NCCCN(C)C)nc(SCCCCCCCCC)n1 [Compound D6S9N16],46.2%
23,CCCCCCCCCCCCCCCCCCNc1nc(NCCCN(C)C)nc(SCCCCCCCCC)n1 [Compound D6S9N18],44.8%

# — patent US20230123334A1, “AMINO LIPID COMPOUND, PREPARATION METHOD THEREFOR, AND APPLICATION THEREOF” (SHENZHEN SHENXIN BIOTECHNOLOGY CO., LTD., priority 2020, published 2023)
